Columns and labels:
[1] = tested on: BT-474; assay: Antiproliferative activity against human BT474 cells; assay type: functional, cell-based
[2] = target: RAC-beta serine/threonine-protein kinase (Homo sapiens, UniProt P31751); assay: Inhibition of human AKT2
[3] = target: RAC-gamma serine/threonine-protein kinase (Homo sapiens, UniProt Q9Y243); assay: Inhibition of human AKT3
[4] = target: Cytochrome P450 3A4 (Homo sapiens, UniProt P08684); assay: Inhibition of CYP3A4; assay type: ADME
[5] = target: RAC-alpha serine/threonine-protein kinase (Homo sapiens, UniProt P31749); assay: Inhibition of human AKT1
[6] = tested on: Mus musculus; assay: Antitumor activity against human BT474 cells xenografted in ip dosed mouse assessed as inhibition of tumor growth; conditions: BT-474
[7] = tested on: Mus musculus; assay: Dose normalized AUC (0 to t) in mouse at 2.2 mg, iv; assay type: ADME, organism-based; conditions: in vivo
[8] = target: T1, Voltage-gated inwardly rectifying potassium channel KCNH2 (Homo sapiens, UniProt Q12809); assay: Inhibition of human ERG relative to control
[9] = tested on: Rattus norvegicus; assay: Dose normalized AUC (0 to t) in rat at 2.4 mg, iv; assay type: ADME, organism-based; conditions: in vivo
[10] = tested on: Rhesus monkey; assay: Dose normalized AUC (0 to t) in monkey at 3.0 mg, iv; assay type: ADME, organism-based, Macaca mulatta; conditions: in vivo
[11] = Clearance in rat at 2.4 mg, iv; assay type: ADME, organism-based; conditions: in vivo
[12] = tested on: Canis familiaris; assay: Dose normalized AUC (0 to t) in dog at 3.1 mg, iv; assay type: ADME, organism-based, Canis lupus familiaris; conditions: in vivo
[13] = tested on: Mus musculus; assay: Antitumor activity against human BT474 cells xenografted in mouse assessed as reduction in tumor volume at 30 mg/kg, ip; set-up: scale not given: the % may be the effect or the level left; conditions: route intraperitoneal
[14] = Clearance in dog at 3.1 mg, iv; assay type: ADME, organism-based, Canis lupus familiaris; conditions: in vivo
[15] = Clearance in mouse at 2.2 mg, iv; assay type: ADME, organism-based; conditions: in vivo
[16] = target: T1, Voltage-gated inwardly rectifying potassium channel KCNH2; assay: Inhibition of human ERG
[17] = Clearance in monkey at 3.0 mg, iv; assay type: ADME, organism-based, Macaca mulatta; conditions: rhesus monkey, in vivo
[18] = Clearance in monkey at 3.1 mg, iv; assay type: ADME, organism-based, Macaca mulatta; conditions: rhesus monkey, in vivo
[19] = tested on: Canis familiaris; assay: Dose normalized AUC (0 to t) in dog at 2.4 mg, iv; assay type: ADME, organism-based, Canis lupus familiaris; conditions: in vivo
[20] = Clearance in rat at 10.6 mg, iv; assay type: ADME, organism-based; conditions: in vivo
[21] = Clearance in dog at 2.4 mg, iv; assay type: ADME, organism-based, Canis lupus familiaris; conditions: in vivo
[22] = tested on: Mus musculus; assay: Dose normalized AUC (0 to t) in mouse at 9.6 mg, ip; assay type: ADME, organism-based; conditions: in vivo
[23] = tested on: Rhesus monkey; assay: Dose normalized AUC (0 to t) in monkey at 3.1 mg, iv; assay type: ADME, organism-based, Macaca mulatta; conditions: in vivo
[24] = tested on: Rattus norvegicus; assay: Dose normalized AUC (0 to t) in rat at 10.6 mg, iv; assay type: ADME, organism-based; conditions: in vivo

Chain of Cytochrome P450 3A4 (P08684 whole entry): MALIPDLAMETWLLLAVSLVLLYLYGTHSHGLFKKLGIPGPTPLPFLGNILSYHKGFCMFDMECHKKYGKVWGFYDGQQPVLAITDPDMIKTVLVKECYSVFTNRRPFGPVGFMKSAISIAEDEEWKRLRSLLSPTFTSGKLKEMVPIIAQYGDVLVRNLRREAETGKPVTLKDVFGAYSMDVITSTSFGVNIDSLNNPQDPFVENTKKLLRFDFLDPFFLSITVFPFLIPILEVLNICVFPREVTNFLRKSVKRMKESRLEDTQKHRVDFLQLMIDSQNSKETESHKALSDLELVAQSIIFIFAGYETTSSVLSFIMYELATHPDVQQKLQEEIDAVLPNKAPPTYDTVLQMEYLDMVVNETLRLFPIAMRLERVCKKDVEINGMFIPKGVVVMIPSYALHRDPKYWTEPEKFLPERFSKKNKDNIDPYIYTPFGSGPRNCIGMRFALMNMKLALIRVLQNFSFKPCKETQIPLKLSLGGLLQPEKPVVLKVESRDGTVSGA
Chain of RAC-alpha serine/threonine-protein kinase (P31749 whole entry): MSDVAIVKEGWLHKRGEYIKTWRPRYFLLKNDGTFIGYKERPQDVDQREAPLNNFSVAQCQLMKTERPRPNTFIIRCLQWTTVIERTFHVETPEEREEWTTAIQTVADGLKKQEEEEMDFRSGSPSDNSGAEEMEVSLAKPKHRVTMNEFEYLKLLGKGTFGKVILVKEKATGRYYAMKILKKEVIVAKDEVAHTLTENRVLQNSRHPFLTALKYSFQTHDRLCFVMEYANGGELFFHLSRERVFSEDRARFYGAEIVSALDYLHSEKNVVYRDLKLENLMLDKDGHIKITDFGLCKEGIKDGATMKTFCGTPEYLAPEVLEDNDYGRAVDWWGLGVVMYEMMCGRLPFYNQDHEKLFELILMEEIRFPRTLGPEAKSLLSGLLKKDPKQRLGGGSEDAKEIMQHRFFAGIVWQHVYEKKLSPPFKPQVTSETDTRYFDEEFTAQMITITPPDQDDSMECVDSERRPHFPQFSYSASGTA
T1 sequence (Q12809 whole entry): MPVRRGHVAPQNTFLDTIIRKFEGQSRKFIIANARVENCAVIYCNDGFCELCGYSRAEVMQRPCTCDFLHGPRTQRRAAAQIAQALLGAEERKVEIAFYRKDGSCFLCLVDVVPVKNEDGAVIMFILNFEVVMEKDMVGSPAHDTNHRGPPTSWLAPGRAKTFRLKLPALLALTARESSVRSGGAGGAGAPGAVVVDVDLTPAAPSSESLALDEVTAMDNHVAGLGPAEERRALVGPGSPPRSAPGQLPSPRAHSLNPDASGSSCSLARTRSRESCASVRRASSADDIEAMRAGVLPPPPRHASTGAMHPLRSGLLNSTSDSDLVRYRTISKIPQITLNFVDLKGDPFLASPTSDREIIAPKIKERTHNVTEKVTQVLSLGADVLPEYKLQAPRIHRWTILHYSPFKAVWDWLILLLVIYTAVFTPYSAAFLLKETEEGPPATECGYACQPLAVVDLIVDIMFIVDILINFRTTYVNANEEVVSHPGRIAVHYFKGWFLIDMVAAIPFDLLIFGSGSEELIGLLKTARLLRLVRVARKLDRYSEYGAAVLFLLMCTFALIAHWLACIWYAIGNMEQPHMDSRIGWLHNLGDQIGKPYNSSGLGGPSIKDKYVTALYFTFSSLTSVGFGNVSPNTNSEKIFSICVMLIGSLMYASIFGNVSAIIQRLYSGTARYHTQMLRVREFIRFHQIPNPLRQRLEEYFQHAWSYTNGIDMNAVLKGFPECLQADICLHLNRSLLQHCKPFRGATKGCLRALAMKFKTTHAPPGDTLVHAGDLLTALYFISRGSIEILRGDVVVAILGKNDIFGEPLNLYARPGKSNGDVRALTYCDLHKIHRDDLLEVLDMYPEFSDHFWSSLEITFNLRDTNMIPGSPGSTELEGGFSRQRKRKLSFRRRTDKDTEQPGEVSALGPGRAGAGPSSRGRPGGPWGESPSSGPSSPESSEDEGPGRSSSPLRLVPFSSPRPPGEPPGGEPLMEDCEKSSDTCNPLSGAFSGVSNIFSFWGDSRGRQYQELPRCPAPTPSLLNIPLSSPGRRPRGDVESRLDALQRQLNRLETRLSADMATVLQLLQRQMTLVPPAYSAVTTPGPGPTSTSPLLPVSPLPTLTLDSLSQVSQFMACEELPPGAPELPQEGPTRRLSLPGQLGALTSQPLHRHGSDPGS
Chain of RAC-gamma serine/threonine-protein kinase (Q9Y243 whole entry): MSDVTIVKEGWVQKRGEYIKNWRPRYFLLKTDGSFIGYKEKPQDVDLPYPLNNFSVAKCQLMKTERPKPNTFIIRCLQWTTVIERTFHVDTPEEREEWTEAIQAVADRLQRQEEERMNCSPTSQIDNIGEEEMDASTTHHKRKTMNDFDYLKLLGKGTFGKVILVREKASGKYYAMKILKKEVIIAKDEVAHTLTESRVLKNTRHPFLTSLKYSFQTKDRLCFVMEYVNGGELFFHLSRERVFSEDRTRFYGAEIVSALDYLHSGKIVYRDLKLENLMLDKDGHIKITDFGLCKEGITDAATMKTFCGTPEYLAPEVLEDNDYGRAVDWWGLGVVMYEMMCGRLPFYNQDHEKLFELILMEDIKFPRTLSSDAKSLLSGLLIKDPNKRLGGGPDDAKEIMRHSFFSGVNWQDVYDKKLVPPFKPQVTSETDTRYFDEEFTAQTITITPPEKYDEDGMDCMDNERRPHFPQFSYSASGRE
Chain of RAC-beta serine/threonine-protein kinase (P31751 whole entry): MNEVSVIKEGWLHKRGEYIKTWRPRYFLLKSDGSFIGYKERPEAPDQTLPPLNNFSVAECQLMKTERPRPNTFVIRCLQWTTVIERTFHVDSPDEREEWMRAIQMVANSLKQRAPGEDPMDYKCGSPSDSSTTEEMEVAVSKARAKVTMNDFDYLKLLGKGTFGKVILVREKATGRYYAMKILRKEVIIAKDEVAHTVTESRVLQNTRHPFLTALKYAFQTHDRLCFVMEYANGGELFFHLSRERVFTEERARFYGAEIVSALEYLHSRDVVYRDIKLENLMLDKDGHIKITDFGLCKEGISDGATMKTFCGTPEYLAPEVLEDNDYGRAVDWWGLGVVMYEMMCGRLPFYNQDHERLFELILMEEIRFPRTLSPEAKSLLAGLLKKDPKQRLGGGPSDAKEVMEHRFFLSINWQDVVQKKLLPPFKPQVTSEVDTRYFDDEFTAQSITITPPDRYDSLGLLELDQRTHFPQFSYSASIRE

Row | Structure (SMILES) | IC50 [1] [nM] | IC50 [2] [nM] | IC50 [3] [nM] | IC50 [4] [nM] | IC50 [5] [nM] | other results
1 | Cc1occc1-c1nc(N)c(OC[C@@H](N)Cc2c[nH]c3ccccc23)cc1-c1cnc2[nH]nc(C)c2n1 | 310 | 19 | 2 | 5000 | 1 | Activity [6]: Dose-dependent effect; AUC [7]: 170 ng·h/mL/mg; inhibition (INH) [8]: 95%; AUC [9]: 303 ng·h/mL/mg; AUC [10]: 853 ng·h/mL/mg; clearance [11]: 46 mL/min/kg; AUC [12]: 630 ng·h/mL/mg; Activity [13]: 59%; clearance [14]: 25.3 mL/min/kg; clearance [15]: 98.9 mL/min/kg; IC50 [16]: 10400 nM; clearance [17]: 22.3 mL/min/kg
2 | Cc1occc1-c1ncc(OC[C@@H](N)Cc2c[nH]c3ccccc23)cc1-c1cnc2[nH]nc(C)c2n1 | 290 | 25 |  | 630 | 1 | inhibition (INH) [8]: 83.4%
3 | CCNc1nc(-c2ccoc2)c(-c2cnc3[nH]nc(C)c3n2)cc1OC[C@@H](N)Cc1ccccc1 | 3900 | 6300 | 500 | 5000 | 500 | 
4 | Cc1n[nH]c2ncc(-c3cc(OC[C@@H](N)Cc4c[nH]c5ccccc45)cnc3-c3ccoc3)nc12 |  |  |  |  |  | clearance [18]: 39.1 mL/min/kg; AUC [19]: 425 ng·h/mL/mg; clearance [20]: 53.2 mL/min/kg; clearance [21]: 34.4 mL/min/kg; AUC [22]: 96 ng·h/mL/mg; AUC [23]: 386 ng·h/mL/mg; AUC [24]: 301 ng·h/mL/mg
5 | Cc1occc1-c1nc(N)c(OC[C@@H](N)Cc2ccccc2)cc1-c1cnc2[nH]nc(C)c2n1 | 580 | 130 | 6 | 3200 | 6 | 
6 | Cc1nc(-c2ccoc2)c(-c2cnc3[nH]nc(C)c3n2)cc1OC[C@@H](N)Cc1c[nH]c2ccccc12 | 1260 | 63 | 10 | 630 | 3 | 
7 | Cc1n[nH]c2ncc(-c3cc(OC[C@@H](N)Cc4c[nH]c5ccccc45)c(C#N)nc3-c3ccoc3)nc12 |  | 250 | 19 | 790 | 10 | 

Further compounds by falling IC50 [2], results first:

Row | IC50 [1] [nM] | IC50 [2] [nM] | IC50 [3] [nM] | IC50 [4] [nM] | IC50 [5] [nM] | Structure (SMILES) | other results
8 | 470 | 15 | 2 | 1000 | 1 | Cc1occc1-c1nc(N)c(OC[C@@H](N)Cc2c[nH]c3ccccc23)cc1-c1cnc2[nH]nc(C)c2c1 | 
9 | > 10000 | 15 | 1 |  | 1 | Cc1occc1-c1nc(N)c(OC[C@@H](N)Cc2c(C(N)=O)[nH]c3ccccc23)cc1-c1cnc2[nH]nc(C)c2n1 | 
10 | 200 | 15 | 1 | 100 | 3 | Cc1occc1-c1nc(N)c(OC[C@@H](N)Cc2c[nH]c3ccccc23)cc1-c1ccc2[nH]nc(C)c2c1 | 
11 | 300 | 13 | 3 | 1300 | 1 | Cc1occc1-c1nc(N)c(OC[C@@H](N)Cc2c[nH]c3ccccc23)cc1-c1cc2c(C)n[nH]c2cn1 | 
12 | 150 | 12 | 2 | 500 | 1 | Cc1occc1-c1nc(N)c(OC[C@@H](N)Cc2c(Cl)[nH]c3ccccc23)cc1-c1cnc2[nH]nc(C)c2n1 | 
13 | 2800 | 7 | 1 | 1600 | 1 | Cc1occc1-c1nc(N)c(OC[C@@H](N)Cc2c(C#N)[nH]c3ccccc23)cc1-c1cnc2[nH]nc(C)c2n1 | 
